Measurements as given in ChEMBL document CHEMBL1151865, “New developments for the design, synthesis and biological evaluation of potent SARS-CoV 3CL(pro) inhibitors” (Bioorg Med Chem Lett, 2009).

target: Replicase polyprotein 1ab (Severe acute respiratory syndrome-related coronavirus, UniProt P0C6X7); assay: Inhibition of SARS coronavirus 3CL protease pretreated for 10 mins before substrate addition

Row | Structure (SMILES) | Ki
1 | CCCN(CCC)C(=O)CC[C@H](NC(=O)[C@H](CC(C)C)NC(=O)[C@@H](NC(=O)[C@H](C)NC(=O)OCc1ccccc1)C(C)C)C(=O)C(F)(F)F | 297 µM
2 | CCN(CC)C(=O)CC[C@H](NC(=O)[C@H](CC(C)C)NC(=O)[C@@H](NC(=O)OCc1ccccc1)C(C)C)C(=O)c1nc2ccccc2s1 | 49.3 µM
3 | CCCN(CCC)C(=O)CC[C@H](NC(=O)[C@H](CC(C)C)NC(=O)[C@@H](NC(=O)OCc1ccccc1)C(C)C)C(=O)C(F)(F)F | 363 µM
4 | CC(C)C[C@H](NC(=O)[C@@H](NC(=O)OCc1ccccc1)C(C)C)C(=O)N[C@@H](CCC(=O)c1nccs1)C(=O)c1nccs1 | 45.2 µM
5 | CCCN(CCC)C(=O)CC[C@H](NC(=O)[C@H](CC(C)C)NC(=O)OCc1ccccc1)C(=O)C(F)(F)F | 584 µM
6 | CCN(CC)C(=O)CC[C@H](NC(=O)[C@H](CC(C)C)NC(=O)OCc1ccccc1)C(=O)c1nccs1 | 462 µM
7 | CC(C)C[C@H](NC(=O)[C@@H](NC(=O)OCc1ccccc1)C(C)C)C(=O)N[C@@H](CCC(=O)N1CCOCC1)C(=O)C(F)(F)F | 21 µM
8 | CC(C)C[C@H](NC(=O)[C@@H](NC(=O)OCc1ccccc1)C(C)C)C(=O)N[C@@H](CCC(=O)N1CCOCC1)C(=O)c1nccs1 | 478 µM
9 | CC(C)C[C@H](NC(=O)[C@@H](NC(=O)OCc1ccccc1)C(C)C)C(=O)N[C@@H](CCC(=O)N(C)Cc1ccccc1)C(=O)C(F)(F)F | 34.1 µM
10 | CCN(CC)C(=O)CC[C@H](NC(=O)[C@H](CC(C)C)NC(=O)[C@@H](NC(=O)OCc1ccccc1)C(C)C)C(=O)c1nccs1 | 112 µM
11 | CCN(CC)C(=O)CC[C@H](NC(=O)[C@@H](NC(=O)OCc1ccccc1)C(C)C)C(=O)c1nccs1 | 614 µM
12 | CCN(CC)C(=O)CC[C@H](NC(=O)[C@@H](NC(=O)OCc1ccccc1)C(C)C)C(=O)c1nc2ccccc2s1 | 159 µM
